From PMC11477298, “Small Molecules Inducing Autophagic Degradation of Expanded Polyglutamine Protein through Interaction with Both Mutant ATXN3 and LC3” (International Journal of Molecular Sciences, 2024) come the findings set out here.

What is called IC50 is the concentration at which inhibition is half-maximal. High values mean weaker potency in that assay, low ones greater potency in that assay.

Assay type in all cases: cell-based, human
A short description of data set [1]: MTT compound cytotoxicity assay. The settings on record: human, ATXN3-Q75-GFP SH-SY5Y cells, 0.1–100 μM compound, viability analyzed the next day, n = 3. On the procedure: For the compound cytotoxicity assay, ATXN3-Q75-GFP SY5Y cells (2 × 10^4) were plated into 96-well dishes, grown for 20 h, and treated with 0.1–100 μM test compounds. After 1 day, 3-(4,5-dimethylthiazol-2-yl)-2,5-diphenyltetrazolium bromide (MTT, 5 mg/mL) (Sigma-Aldrich, St. Louis, MO, USA) was added to the cells and incubated for 3 h at 37 °C. Lysis buffer (10% Triton X-100, 0.1 N HCl, 18% isopropanol) was then added to dissolve the insoluble formazan crystals. The absorbance of the purple-colored solution was measured at optical density (OD) 570 nm by using a FLx800 fluorescence microplate spectrophotometer (Bio-Tek, Winooski, VT, USA). The half-maximal inhibitory concentration (IC50) was calculated through the construction of a dose–response curve.
Background: Tetrazolium assays rely on reduction of a dye to a coloured formazan, in cell work by metabolically active cells.

Data set [2] relates to ATXN3-Q75-GFP SH-SY5Y cells. Kind of data set: High-content neurite outgrowth assay. As to conditions: for Neurite branch: untreated 1.16; for Neurite length: untreated 23.2 µm. The method, then: ATXN3-Q75-GFP SH-SY5Y cells (5 × 10^4/well) were plated onto 24-well plates, with retinoic acid addition (10 µM; Sigma-Aldrich) on day 1 to initiate neuronal differentiation. On day 2, the cells were pretreated with disaccharide trehalose (10 mM, as a positive control) or the studied compounds (10 μM) for 8 h, followed by the addition of doxycycline (5 μg/mL, Sigma-Aldrich) to induce ATXN3-Q75-GFP expression. The cells were kept in the medium containing retinoic acid, the test compound, and doxycycline for 6 days, with the culture medium changed on day 5. ATXN3-Q75 aggregation and neurite outgrowth assays were performed on day 8 using a high-content imaging system (ImageXpress Micro Confocal; Molecular Devices).
For the aggregation assay, cells were stained with Hoechst 33342 (0.1 µg/mL; Sigma-Aldrich) at 37 °C for 30 min. Images of the cells were automatically obtained at excitation/emission wavelengths of 482/536 nm (FITC [fluorescein isothiocyanate] filter) for enhanced GFP and 377/447 nm (DAPI [4′,6-diamidino-2-phenylindole] filter) for nucleus counting. ATXN3-Q75 aggregation was determined by Transfluor technology based on GFP fluorescence intensity. For the neurite outgrowth assay, cells were fixed with 4% paraformaldehyde for 30 min, permeabilized with 0.1% Triton X-100 for 10 min, and blocked by non-specific binding with 3% bovine serum albumin for 20 min. The primary TUBB3 (neuronal class III β-tubulin) antibody (1:1000; BioLegend #802001, San Diego, CA, USA) was used to stain cells at 4 °C overnight, followed by Alexa Fluor 555-donkey anti-rabbit IgG secondary antibody (1:1000; Invitrogen #A-31572) staining for 2 h at room temperature. Nuclei were detected using DAPI (0.1 μg/mL; Sigma-Aldrich). Cell images were obtained at excitation/emission wavelengths of 531/593 nm (TRITC [tetramethylrhodamine] filter) for stained neurites and 377/447 nm (DAPI filter) for nuclei. To quantify neurite outgrowth, microscopic images were segmented with multi-colored masks to assign each outgrowth to a cell body for quantification. Neurite total length (μm) and numbers of process (primary neurites originating from neuronal cell body) and branch (secondary neurites extended from primary neurites) were analyzed (Neurite Outgrowth Application Module; Molecular Devices). In general, […] in each biological replicate were analyzed.

Data set [3] has as its system ATXN3-Q75-GFP SH-SY5Y cells. Kind of data set: Confocal microscopy of LC3 puncta, ATXN3-Q75 aggregates and P62 colocalization. The settings on record: range over trehalose and the four compounds; for Colocalization coefficient of ATXN3-Q75-GFP with LC3 puncta: untreated 0.014; for Colocalization coefficient of LC3 with P62: untreated 0.21; for LC3 puncta per cell: untreated induced 2.7. The method, then: ATXN3-Q75-GFP SY5Y cells were seeded onto 12-well plates (1 × 10^5/well) containing poly-L-lysine-coated coverslip on day 1; treated with retinoic acid, test compounds, and doxycycline on day 2; and fixed, permeabilized, and blocked on day 8, as described. The primary anti-LC3 antibody (1:1000; Cell Signaling #83506, Danvers, MA, USA) or anti-P62 antibody (1:1500; Cell Signaling #5114) was used to stain cells at 4 °C overnight. After washing with PBS containing 0.1% Tween 20 (PBST), cells were incubated for 2 h at room temperature with Cy5-conjugated (1:1000, Jackson ImmunoResearch 715-175-150) or Alexa Fluor 555-conjugated (1:500; Invitrogen #A-31572) secondary antibody, and washed three times with PBST. Nuclei were detected using DAPI (0.1 μg/mL; Sigma-Aldrich). The stained cells on coverslips were mounted onto microscope slides with Vectashield antifade mounting medium (Vector Laboratories, Newark, CA, USA) and examined using a Zeiss LSM880 confocal microscope (Carl Zeiss AG, Oberkochen, Baden-Württemberg, Germany). Cell images were acquired at excitation/emission wavelengths of 649/666 nm, 482/536 nm, 555/582 nm, and 385/461 nm for stained LC3 puncta, aggregates, P62, and nuclei, respectively. For colocalization, 300 cells from three independent experiments were analyzed and quantified for the proportion of pixels that LC3 (red) colocalized with P62 (yellow) using Mander’s overlap coefficient (MOC) in ZEN software version 2.1 (Carl Zeiss AG).

For data set [4], the system named is ATXN3-Q75-GFP SH-SY5Y cells. Kind of data set: Filter trap assay of cell lysates. The settings on record: trehalose 10 mM; without compound = 100%. The method, then: The filter retardation assay was performed to quantify ATXN3-Q75 protein aggregates. The purified Trx-His-ATXN3-Q75 protein was incubated with test compounds (100 µM) at 37 °C for 2 days as described. In addition, proteins from compound-treated ATXN3-Q75-GFP SH-SY5Y cells were prepared (as described in Western blotting). Proteins (0.5 µg of biochemical reaction or 20 µg of cellular lysates) were diluted in 2% SDS in phosphate-buffered saline (PBS) and filtered through a cellulose acetate membrane (0.45-μm pore size; Sterlitech, Auburn, WA, USA) pre-equilibrated in 2% SDS in PBS on a dot-blot filtration apparatus (Bio-Rad Laboratories, Hercules, CA, USA). After washing with 2% SDS buffer, the membrane was blocked in PBS containing 5% skim milk at 4 °C overnight. Insoluble ATXN3-Q75 was probed with an anti-His tag (1:2000; OriGene #TA100013, Rockville, MD, USA) or anti-ATXN3 (1:1000; Invitrogen #PA5-26251) antibody. The immune complex on the filter was detected using horseradish peroxidase (HRP)-conjugated goat anti-mouse (#GTX213111-01) or goat anti-rabbit (#GTX213110-01) immunoglobulin G (IgG) antibody (1:5000; GeneTex, Irvine, CA, USA) and a chemiluminescent HRP substrate (Millipore, Billerica, MA, USA). The chemiluminescent signals were captured with an ImageQuant LAS 4000 (GE Healthcare, Chicago, IL, USA) and quantified (Multi Gauge V3.0 software, Fujifilm, Tokyo, Japan). […]

Data set [5] concerns ATXN3-Q75-GFP SH-SY5Y cells. Kind of data set: High-content analysis of ATXN3-Q75 aggregation in cells. The settings on record: trehalose 10 mM; untreated induced cells 8.2%; day 8. The method, then:
ATXN3-Q75-GFP SH-SY5Y cells (5 × 10^4/well) were plated onto 24-well plates, with retinoic acid addition (10 µM; Sigma-Aldrich) on day 1 to initiate neuronal differentiation. On day 2, the cells were pretreated with disaccharide trehalose (10 mM, as a positive control) or the studied compounds (10 μM) for 8 h, followed by the addition of doxycycline (5 μg/mL, Sigma-Aldrich) to induce ATXN3-Q75-GFP expression. The cells were kept in the medium containing retinoic acid, the test compound, and doxycycline for 6 days, with the culture medium changed on day 5. […]
For the aggregation assay, cells were stained with Hoechst 33342 (0.1 µg/mL; Sigma-Aldrich) at 37 °C for 30 min. […] ATXN3-Q75 aggregation was determined by Transfluor technology based on GFP fluorescence intensity. […] Nuclei were detected using DAPI (0.1 μg/mL; Sigma-Aldrich). […] To quantify neurite outgrowth, microscopic images were segmented with multi-colored masks to assign each outgrowth to a cell body for quantification. Neurite total length (μm) and numbers of process (primary neurites originating from neuronal cell body) and branch (secondary neurites extended from primary neurites) were analyzed (Neurite Outgrowth Application Module; Molecular Devices). In general, 104 cells in each biological replicate were analyzed.

In data set [6] the test system is ATXN3-Q75-GFP SH-SY5Y cells. Kind of data set: Western blot of LC3-II:LC3-I ratio. The settings on record: uninduced = 100%, untreated induced 76%, range over trehalose and the four compounds. On the procedure: For the immunoblotting analysis, ATXN3-Q75-GFP SH-SY5Y cells were seeded in 6-well plates (3 × 10^5/well) and treated with retinoic acid, test compounds, and doxycycline, as described. On day 8, cells were collected and lysed in buffer (50 mM Tris-HCl pH 8.0, 150 mM NaCl, 2 mM EDTA pH 8.0, 0.1% SDS, 0.5% sodium deoxycholate, 1% NP-40) containing the protease inhibitor cocktail (Sigma-Aldrich). After sonication, the lysates were centrifuged (12,000× g for 10 min at 4 °C) and protein concentrations determined (Bradford protein assay; Bio-Rad, Hercules, CA, USA). Aliquots of protein (20 µg) were separated by electrophoresis using 12% SDS-polyacrylamide gel followed by transfer to a polyvinylidene fluoride membrane. After being blocked with 5% skim milk at 4 °C overnight, the membrane was stained with LC3 (1:1000; Medical & Biological Laboratories Co. #PM036, Tokyo, Japan) or GAPDH (glyceraldehyde 3-phosphate dehydrogenase) (1:1000, MDBio #30000002, Taipei, Taiwan) primary antibody at 4 °C overnight. The immune complexes were detected using HRP-conjugated goat anti-rabbit IgG antibody and chemiluminescent substrate, as described.
Background: In western blotting, separated proteins are transferred to a membrane and probed.

The mark [7] stands for this setting: compound 10 µM, range over the four named compounds.

In the case of `O=C(/C=C/c1ccco1)c1c(O)c2ccccc2oc1=O` [LM-022], 102 µM corresponded to half-maximal inhibition in data set [1] (IC50 at 1 day).
The same measure, in the same setting: the same measure for `CC(=O)/C(=C\c1ccccc1[N+](=O)[O-])Cc1c(-c2ccccc2)[nH]c2ccccc12` [NC009-3]: more than 100 µM.
In data set [2] (trehalose 10 mM), `OC[C@H]1O[C@H](O[C@H]2O[C@H](CO)[C@@H](O)[C@H](O)[C@H]2O)[C@H](O)[C@@H](O)[C@@H]1O` [trehalose, reference compound] returned a Neurite branch of 1.31 and a Neurite length of 25.5 µm. For the same molecule, in data set [3] (trehalose 10 mM), the “Colocalization coefficient of ATXN3-Q75-GFP with LC3 puncta” value is 0.025–0.030, the “Colocalization coefficient of LC3 with P62” value is given as 0.26–0.29 and the “LC3 puncta per cell” value is reported as 4.6–6.7. Also, the “Insoluble aggregated proteins in cell lysates (filter trap)” value in data set [4] is on record as 45%. The “Percentage of aggregated cells” value in data set [5] is 7.4%. Also, in data set [6] (trehalose 10 mM), the “Relative LC3-II:LC3-I ratio” value is 102–124%.
Take `CCc1cccc2c(C/C(=C/c3ccccc3[N+](=O)[O-])C(C)=O)c[nH]c12` [NC009-6]: in data set [2] (setting [7]), the Neurite branch is 1.34–1.37 and the Neurite length is listed as 26.1–26.9 µm. Also, the Neurite process in data set [2] (compound 10 µM, untreated 2.41, range over the four named compounds) is listed as 2.55–2.57. In addition, in data set [3] (compound 10 μM), the “Colocalization coefficient of ATXN3-Q75-GFP with LC3 puncta” value is 0.025–0.030, the “Colocalization coefficient of LC3 with P62” value is 0.26–0.29 and the “LC3 puncta per cell” value is 4.6–6.7. 176 µM corresponded to half-maximal inhibition in data set [1] (IC50 at 1 day). For the same molecule, in data set [6] (compound 10 μM), the “Relative LC3-II:LC3-I ratio” value is given as 102–124%.
